Measured values reported in PubChem BioAssay (NCI).
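Values below derive from 48-hour exposures of cells grown in 96-well plates, with endpoints linearly interpolated between the two concentrations bracketing the appropriate inhibition level. GI50 = concentration required for 50% inhibition of growth. TGI denotes the concentration required for complete inhibition of growth.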

Columns and labels:
Assay in all cases: NCI-60 cell line screen, 48 h
MDA-N = test system: MDA-N
BT-549 breast = test system: BT-549 breast
RXF-631 renal = test system: RXF-631 renal
HOP-18 NSCLC = test system: HOP-18 NSCLC
XF 498 CNS = test system: XF 498 CNS
KM20L2 colon = test system: KM20L2 colon
M19-MEL melanoma = test system: M19-MEL melanoma
DLD-1 colon = test system: DLD-1 colon
SNB-78 CNS = test system: SNB-78 CNS

Structure (SMILES) | TGI (BT-549 breast) [µM] | TGI (HOP-18 NSCLC) [µM] | TGI (XF 498 CNS) [µM] | TGI (M19-MEL melanoma) [µM] | TGI (SNB-78 CNS) [µM] | GI50 (BT-549 breast) [µM] | other results
O=C(O)C1C(C(=O)Nc2ccc3c(c2)Cc2ccccc2-3)C2(Cl)C(Cl)=C(Cl)C1(Cl)C2(Cl)Cl (stereo unspecified) | 39.2 | – | – | – | – | – | TGI (MDA-N): > 100 µM
CCCC/C=C/C1Cc2ccccc2CN1S(=O)(=O)c1ccc(C)cc1 (stereo unspecified) | – | > 100 | 78.1 | 18.8 | – | – | TGI (RXF-631 renal): 20.9 µM; TGI (KM20L2 colon): 26.2 µM; TGI (DLD-1 colon): 32.9 µM
CC(=O)OC1CC(n2cc(F)c(=O)[nH]c2=O)OC1CO (stereo unspecified) | > 100 | > 100 | 83.8 | > 100 | > 100 | – | TGI (MDA-N): > 100 µM; TGI (KM20L2 colon): > 100 µM; TGI (DLD-1 colon): > 100 µM
COc1ccc(C(=O)c2ccc(OC)c(OC)c2OC)cc1 | > 100 | – | – | – | – | 6.16 | –
O=S(O)CCCCCSSCCCCSSCCCCCS(=O)O | – | > 100 | > 100 | > 100 | > 100 | – | TGI (RXF-631 renal): > 100 µM; TGI (KM20L2 colon): > 100 µM; TGI (DLD-1 colon): > 100 µM
C/C(=N\NC(=O)c1ccncc1)c1ccc2ccccc2c1O | > 100 | – | – | – | – | – | TGI (MDA-N): > 100 µM
Cn1c2c(c3ccccc31)C1CCCCC1C1C(=O)NC(=O)C21 (stereo unspecified) | – | > 100 | > 100 | > 100 | > 100 | – | TGI (RXF-631 renal): > 100 µM; TGI (DLD-1 colon): > 100 µM
CN1CCCNc2c(c(=O)c2=O)NCCCN(C)CCCNc2c(c(=O)c2=O)NCCCN(C)CCCNc2c(c(=O)c2=O)NCCCN(C)CCCNc2c(c(=O)c2=O)NCCCN(C)CCCNc2c(c(=O)c2=O)NCCCN(C)CCCNc2c(c(=O)c2=O)NCCCN(C)CCCNc2c(c(=O)c2=O)NCCC1 | 19.8 | – | – | – | – | 5.69 | –
CC1C[C@H](OC(N)=O)C(C)CC1=O (stereo partly specified) | – | > 100 | > 100 | > 100 | > 100 | – | TGI (KM20L2 colon): > 100 µM; TGI (DLD-1 colon): > 100 µM
C[C@]12CCC[C@H](Cl)C1(O)C[C@H](C(=O)O)CC2 (stereo partly specified) | – | > 100 | > 100 | > 100 | > 100 | – | TGI (KM20L2 colon): > 100 µM; TGI (DLD-1 colon): > 100 µM
CCCCCC(O)C1C(=O)OC(C)C(O)/C=C/C=C/C=C/C=C\C=C(\C)C(O)CC(O)CC(O)CC(O)CC(O)CC(O)CC1O (stereo unspecified) | > 100 | – | – | – | – | > 100 | GI50 (MDA-N): > 100000 nM; TGI (MDA-N): > 100 µM
CC1=CC(=O)CCC2(C)C1CC[C@@H]2OC=O (stereo partly specified) | – | > 100 | > 100 | > 100 | > 100 | – | TGI (RXF-631 renal): > 100 µM; TGI (KM20L2 colon): > 100 µM; TGI (DLD-1 colon): > 100 µM
COc1ccc2oc3c4c2c1CCC4CCC3=O (stereo unspecified) | – | – | > 100 | > 100 | > 100 | – | TGI (RXF-631 renal): > 100 µM
C=C1C[C@](OC)([C@H](O)C(=O)N[C@@H](OC)[C@@H]2C[C@@H](O)C(C)(C)[C@@H](C[C@@H](COC)OC)O2)O[C@H](C)[C@@H]1C | 0.00326 | – | – | – | – | 0.00118 | –
CSC(C1c2ccccc2N(C)C2=NC(=O)N(C)C(=O)C21Cl)S(=O)(=O)c1ccc(C)cc1 (stereo unspecified) | – | > 100 | > 100 | > 100 | > 100 | – | TGI (RXF-631 renal): > 100 µM; TGI (KM20L2 colon): > 100 µM; TGI (DLD-1 colon): > 100 µM
CN1C2(c3ccccc3)c3c(-c4ccccc4)sc(-c4ccccc4)c3C1(c1ccccc1)C1C(=O)N(c3ccccc3)C(=O)C12 (stereo unspecified) | – | > 100 | > 100 | > 100 | > 100 | – | TGI (RXF-631 renal): > 100 µM; TGI (KM20L2 colon): > 100 µM; TGI (DLD-1 colon): > 100 µM
CN(C)c1ccc(C(=C2C=CC(=[N+](C)C)C=C2)c2ccc(N(C)C)cc2)cc1 (tested in a mixture with another compound) | 0.84 | – | – | – | – | 0.188 | –
CC(=O)Nc1ccc(Sc2ccc([N+](=O)[O-])o2)cc1 | 10.6 | – | – | – | – | 5.22 | –
CSc1cnn(CCC#N)c(=O)n1 | > 100 | – | – | – | – | – | TGI (MDA-N): > 100 µM

Structure (SMILES) | TGI (BT-549 breast) [µM] | TGI (HOP-18 NSCLC) [µM] | TGI (XF 498 CNS) [µM] | TGI (M19-MEL melanoma) [µM] | TGI (SNB-78 CNS) [µM] | GI50 (BT-549 breast) [µM] | other results
NS(=O)(=O)c1cc2c(cc1Cl)NC(Cc1ccccc1)NS2(=O)=O (stereo unspecified) | > 100 | – | – | – | – | – | TGI (MDA-N): > 100 µM
O=C1C(Br)=CC2(C=C1Br)CCN=c1c2c(O)c2nc3ccccc3c3ccnc1c23 | 12.2 | – | – | – | – | 5.83 | GI50 (MDA-N): 951 nM; TGI (MDA-N): 2.22 µM
CC(C)c1ccccc1NC(=O)C(=O)Cc1nc2ccccc2s1 | – | > 100 | – | > 100 | > 100 | – | TGI (RXF-631 renal): > 100 µM; TGI (KM20L2 colon): > 100 µM
O=C1OCC(c2cccs2)=C1Cl | > 100 | – | – | – | – | 33.4 | –
O=P(O)(O)c1ccccc1 (tested in a mixture with another compound) | > 100 | – | – | – | – | – | TGI (MDA-N): > 100 µM
CCOc1ccc([C@@H]2[C@@H](Oc3ccccc3)C(=O)N2c2cc(OC)c(OC)c(OC)c2)cc1 | > 100 | – | – | – | – | 0.0681 | –
CC(=O)N1CC(Nc2ccc(OC(F)(F)F)cc2)=CC1=O | > 100 | – | – | – | – | 4.16 | –
COc1ccc(/C(Cl)=C(\C=O)c2ccc([N+](=O)[O-])cc2)cc1OC | – | 23.7 | 9.59 | 24.3 | 56.5 | – | TGI (MDA-N): 14.5 µM; TGI (RXF-631 renal): 26.9 µM; TGI (KM20L2 colon): 25.5 µM
COc1ccc(-c2ccc(/C=N/n3c(COc4ccccc4Cl)nn(CN4CCN(C)CC4)c3=S)o2)c([N+](=O)[O-])c1 | 43 | – | – | – | – | 17.2 | –
CC(C)[C@@]12C[C@@H](OC(=O)[C@H]3CO3)[C@@](C)(O1)[C@@H]1CC[C@@H](C)[C@H]1[C@@H]2OC(=O)/C=C/c1ccccc1 | 13.7 | – | – | – | – | 1.34 | –
COc1cccc(C2C(C#N)=C(N)Oc3cc(N)ccc32)c1 (stereo unspecified) | 54.3 | – | – | – | – | 0.351 | –
COc1ccc(Nn2c(SCC(=O)Nc3nc(-c4ccc(Cl)cc4)cs3)nc(C)c2C)cc1 | 82 | – | – | – | – | 6.46 | –
CCCCCCCC/C=C/CCCCCCCC1=NCC[N+]1(CCO)CCO | 10.8 | – | – | – | – | 3.17 | –
CCNCC(=O)O[C@]1(CC)C(=O)OCc2c1cc1n(c2=O)Cc2cc3ccccc3nc2-1 | 26.7 | 20.5 | 1.56 | 5.44 | > 100 | – | TGI (MDA-N): 6.95 µM; TGI (KM20L2 colon): > 100 µM; TGI (DLD-1 colon): > 100 µM
COc1cc(NCCCCN=C(N)NC(N)=NC(C)C)c2ncccc2c1 | 23.9 | – | – | – | – | 9.6 | –
CC(=O)c1c(C(F)(F)F)n([O-])c2ccc(Cl)cc2[n+]1=O | 2.65 | – | – | – | – | 1.14 | –
O=[N+]([O-])c1ccc(-c2nc(-c3ccccc3)c(-c3ccccc3)n2-c2ccccc2)cc1 | 6.53 | – | – | – | – | 2.16 | –
C1CCN(CCC2CCCCN2)CC1 (stereo unspecified) | > 100 | – | – | – | – | – | TGI (MDA-N): > 100 µM
